# Values quoted from earlier work as cited in patent US7385060B2, “Method for producing salts of tolperisone” (Sanochemia Pharmazeutika AG, priority 2002, dated 2008).
# Key:
# RAT = conditions: oral
# HMN = conditions: inhalation, human, 30 m
structure (smiles),measurement,setting,value
C=O [formaldehyde],ORL-RAT LD50,RAT,100 mg/kg
same,IHL-TCLO HMN,HMN,17 mg/m^3/30 m
